Paper PMC9143821, “Design and Synthesis of a Novel 4-aryl-N-(2-alkoxythieno [2,3-b]pyrazine-3-yl)-4-arylpiperazine-1-carboxamide DGG200064 Showed Therapeutic Effect on Colon Cancer through G2/M Arrest” (Pharmaceuticals, 2022)
Where two headings read alike, the source gives them in different places.

Columns and labels:
[1] = Pharmacokinetics in SD rats; format: in vivo; conditions: male, Sprague-Dawley, rat, plasma
Procedure: Sprague–Dawley rats (adult males, 250–300 g) were fasted overnight, and the femoral vein (for iv administration of the compound) and jugular vein (for blood sampling) of each rat were cannulated with polyethylene tubing. The selected compounds dissolved in 30% polyethylene glycol (PEG) in saline were administered either intravenously or orally. At various time points after administration, blood samples (0.5 mL) were collected from the jugular vein, transferred to heparin-coated tubes, centrifuged to separate off the plasma. The plasma was stored at −80 °C until assayed. Compound concentrations in plasma were determined by LC/MS/MS analysis (API4000 mass spectrometer, Applied Biosystem, Waltham, MA, USA). Pharmacokinetic parameters were analyzed using the WinNonlin software program. The area under the curve (AUC) was calculated using the trapezoidal rule extrapolated to infinity. The terminal elimination half-life, systemic clearance, and volume of distribution at steady state were determined. The extent of absolute oral bioavailability (F) was estimated by comparing the AUC values after intravenous and oral administration of the compounds.

pKa determination = format: physicochemical
From the text: Table 4 Physicochemical Properties of the Lead Compounds 7c. | column: 7c

[2] = test system: HCT116 mouse tumor models; test: HCT116 xenograft mouse tumor model; format: in vivo, nude BALB/c mice; conditions: 6 days/week, 21 days
Procedure: We tested the inhibition effect by DGG200064 in the HCT116 mouse tumor models (Figure 6a). Cultured HCT116 cells were injected subcutaneously near the scapulae of 6-week-old female nude BALB/c mice. Oral administration of DGG200064 (60, 120 mg/kg) began when tumors reached a volume of 100 mm^3 and proceeded for 6 days/week. […] Mice were then injected intraperitoneally with BrdU and anesthetized 2 h later. They were then perfused with PBS and killed. To identify the level of c-Jun by DGG200064, HCT116 tumors harvested from mice were fixed and analyzed by immunohistochemical staining for Hematoxylin and c-Jun. […]
Xenografts were initiated in female Bagg and Albino (BALB)/c nude mice (6–8 weeks old; n = 18). […] The size of the primary tumors was measured every 2–3 days using calipers. Tumor volume was calculated using the formula, v = (A × B2)/2, where […] is the short diameter (mm). […]
The isolated tumors issued were then stained with antibodies against BrdU (1:700), c-Jun (1:50). […] Endogenous peroxidase activity was blocked with hydrogen peroxide, and background staining was blocked with V block solution, the primary antibodies were detected with horseradish […] (HRP)-conjugated polymer and developed with diaminobenzidine (DAB). […] Positively stained nuclei were counted, and the differences between the groups were analyzed using Student’s t-test, p values ≤0.05 were considered significant.

COc1cc(OC)cc(N2CCN(C(=O)Nc3nc4sccc4nc3OC)CC2)c1 [Compound 7c, 4-(3,5-Dimethoxyphenyl)-N-(2-methoxythieno[2,3-b]pyrazin-3-yl)piperazine-1-carboxamide]
AUC(0-inf) ([1]; SD rats, IV, 1 mg/kg): 0.708 µg·h/mL | AUC(0-t) ([1]; SD rats, IV, 1 mg/kg): 0.703 µg·h/mL | Cmax ([1]; SD rats, IV, 1 mg/kg): 0.551 µg/mL | Tmax ([1]; SD rats, IV, 1 mg/kg): 0.083 h | clearance ([1]; SD rats, IV, 1 mg/kg): 1.51 L/h/kg | half-life ([1]; SD rats, IV, 1 mg/kg): 1.11 h | Vd ([1]; SD rats, IV, 1 mg/kg, read-out: Vss): 2.31 L/kg | AUC(0-inf) ([1]; SD rats, PO, 5 mg/kg): 0.964 µg·h/mL | AUC(0-t) ([1]; SD rats, PO, 5 mg/kg): 0.707 µg·h/mL | Cmax ([1]; SD rats, PO, 5 mg/kg): 0.076 µg/mL | Tmax ([1]; SD rats, PO, 5 mg/kg): 4.05 h | half-life ([1]; SD rats, PO, 5 mg/kg): 7.5 h | bioavailability ([1]; SD rats, PO, 5 mg/kg, read-out: F): 20.1% | Cmax ([1]; no unit, species or route stated in b12 (7c value equals SD rats PO of Table 3)): 0.076 µg/mL | bioavailability ([1]; species and route not stated in b12 (7c value equals SD rats PO of Table 3), read-out: bioavailability (F)): 20.1% | pKa (pKa determination; first of two values): 2.39 | pKa (pKa determination; second of two values): 11.6 | c-Jun expression increase in tumors compared to the control group (IHC) ([2]; 60 mg/kg oral): 1.2 fold | c-Jun expression increase in tumors compared to the control group (IHC) ([2]; 120 mg/kg oral): 2 fold
